Assay results reported in article PMC3076384, “A Dopa Decarboxylase Modulating the Immune Response of Scallop Chlamys farreri” (PLoS ONE, 2011).

Biological target: T1, rCfDDC (recombinant CfDDC, dopa decarboxylase of Chlamys farreri) (Azumapecten farreri, UniProt F8QPW5)
T1 construct: gene DDC; ~65 kDa on gel
T1 sequence (F8QPW5 1-560): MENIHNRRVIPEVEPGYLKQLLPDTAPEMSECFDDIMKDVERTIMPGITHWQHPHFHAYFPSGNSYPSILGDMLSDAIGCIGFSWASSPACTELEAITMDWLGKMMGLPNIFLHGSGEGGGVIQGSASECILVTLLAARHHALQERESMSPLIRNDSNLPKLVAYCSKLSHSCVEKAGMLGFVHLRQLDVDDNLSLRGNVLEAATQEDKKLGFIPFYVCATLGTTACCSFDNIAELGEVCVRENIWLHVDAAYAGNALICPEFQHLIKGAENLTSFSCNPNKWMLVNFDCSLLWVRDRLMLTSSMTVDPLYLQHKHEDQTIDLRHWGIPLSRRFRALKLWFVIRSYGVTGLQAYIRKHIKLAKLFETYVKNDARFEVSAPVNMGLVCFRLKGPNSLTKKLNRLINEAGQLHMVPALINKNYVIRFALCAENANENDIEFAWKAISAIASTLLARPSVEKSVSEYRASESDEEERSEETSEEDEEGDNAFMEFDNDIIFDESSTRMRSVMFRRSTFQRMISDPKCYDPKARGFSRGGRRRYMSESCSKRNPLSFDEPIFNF
Assay: dopamine formation measured by ELISA kit
Type: biochemical
Conditions: 30 mM L-Dopa; 0.4 mM PLP; PBS pH 7.4; 37 °C; 1 h

Question: With `N[C@@H](Cc1ccc(O)c(O)c1)C(=O)O` [L-Dopa] as the compound, how does the “dopamine formation measured by ELISA kit” value read?
Answer: Its value is “there was detectable dopamine in the reactions with the addition of rCfDDC”.
